Patent publication US20110020326A1, “METHOD OF TREATING POLYCYSTIC KIDNEY DISEASE” (CHILDREN'S MEDICAL CENTER CORPORATION, priority 2008, published 2011)
“Also recorded” adds a separate entry of the source.

Tests used:
[1] = system: Pkd1^null/null embryonic kidneys; assay: Embryonic kidney organ culture model of PKD (8-Br-cAMP-induced cyst formation, H&E sections); format: cell-based, mouse; conditions: 96 hours of culture
Procedure: Embryonic mice kidneys of E13.5 were dissected out and cultured in media^29 (1% FBS, 5 mg/ml Transferin, 0.05 mM Sodium Selenite, 100 nM hydrocortisone, 2 nM T3, 25 ng/ml PGE1, 100 U/ml Penicillin/streptomycin, 100 mM 8-Br-cAMP) in Center-Well Organ Culture Dish (BD Labware, Franklin Lakes, N.J.). The following day, the kidneys from the same embryo were treated with either […] Met Kinase Inhibitor (Calbiochem, La Jolla, CA) or DMSO (the same volume with Met Kinase Inhibitor). The media were changed everyday with the same additives as above. After […], kidneys were fixed by 4% PFA, and embedded in paraffin. Paraffin sections were stained with hematoxylin and eosin.
Embryonic mice kidneys of E13.5 were dissected out and cultured in media (1% FBS, 5 mg/ml Transferin, 0.05 mM Sodium Seelenite, 100 nM hydrocortisone, 2 nM T3, 25ng/ml PGE1, 100 U/ml Penicillin/streptomycin, 100 mM 8-Br-cAMP) in Center-Well Organ Culture Dish (BD Labware, Franklin Lakes, N.J.). The following day, the kidneys from the same embryo were treated with either 2 microgram/ml c-MET blocking antibody (R&D Systems, Minneapolis, Minn.) or PBS (the same volume with c-Met blocking antibody). The media were changed everyday with the same additives as above. After 4 days, kidneys were fixed by 4% PFA, and embedded in paraffin. Paraffin sections were stained with hematoxylin and eosin.
E13.5 embryonic kidneys were put in organ culture along with 100 μM 8-Br-cAMP, with or without 5 μM c-MET inhibitor (SU11274, from Calbiochem). (B) E13.5 embryonic kidneys were put in organ culture along with 100 mM 8-Br-cAMP, with or without 5 μg/ml c-MET neutralizing antibody (R&D Systems). (C) E13.5 embryonic kidneys were put in organ culture along with 100 mM 8-Br-cAMP, with or without 0.5 μM c-MET inhibitor (PHA665752, from Tocris, UK). Hematoxylin & Eosin stained sections of kidneys are shown after 96 hours of culture.

[2] = system: mTOR phosphorylation in Pkd1^null/null cells; assay: mTOR phosphorylation (Western blot phospho-mTOR / total mTOR) in Pkd1 null/null cells; format: cell-based, mouse; conditions: c-Met inhibitor 5 mM for 40 min (FIG. 1 legend) / 5 μM, 4 hours (Example 5), FIG. 1a, b
Procedure: Pkd1 wild type (WT) and Pkd1^null/null cell line were isolated from embryonic day 15.5 kidneys from a cross of Pkd1^null/+ mice that also carry a temperature-sensitive simian virus 40 (SV40) large T-antigen transgene, similar with the protocol described in reference 23. Wt and Pkd1^null/null cells were cultured in Dulbecco's modified Eagle medium containing 2% fetal bovine serum, 0.75 μg/L γ-interferon, 1.0 g/L insulin, 0.67 mg/L sodium selenite, 0.55 g/L transferrin, 36 ng/ml hydrocortisone, 100 U/ml Penicillin/streptomycin under 33° C. and 5% CO2^23.
Immunoprecipitation and western-blot were performed using whole cell lysates unless otherwise specified. Confluent cells were collected, washed with PBS, lysed with lysis buffer (20 mM Tris/HCl, 1 mM EDTA, 150 mM NaCl, 1% Triton X-100) containing proteinase inhibitor cocktail tablet (Roche #1697498, Mannheim, Germany) at 4° C. for 30 minutes. After centrifugation at 13,000 rpm for 15 minutes, supernatants were incubated with specific antibody at 4° C. for 1 hour, followed by incubation with Protein G conjugated beads (Pierce Biotechnology, IL) at 4° C. for 2 hours, washed in lysis buffer. Samples were running on 7.5% acrylamide gel, transferred to PVDF membranes and visualized by immunoblotting with respective antibodies. […]

[3] = FIG. 6, Pkd1^null/null kidneys at E15.5, 10 mM 8-Br-cAMP, 5 μM c-MET inhibitor

Structure (SMILES)	cyst formation ([1]; FIG. 7C, E13.5 Pkd1 null/null kidneys, 100 mM 8-Br-cAMP, 0.5 μM)	effect on nephrogenesis ([1]; FIG. 7C, E13.5 kidneys, 100 mM 8-Br-cAMP, 0.5 μM)	mTOR phosphorylation [2]	mTOR phosphorylation ([2]; listed as Met Kinase Inhibitor)	cyst formation [1, 3]	size and number of cysts [1, 3]	effect on nephrogenesis ([1]; FIG. 6, wild type and Pkd1^null/null kidneys, 5 μM c-MET inhibitor, listed as c-MET inhibitor)	effect on nephrogenesis ([1]; FIG. 6, wild type and Pkd1^null/null kidneys, 5 μM c-MET inhibitor, listed as c-Met inhibitor)	cyst formation ([1]; FIG. 7A, E13.5 Pkd1 null/null kidneys, 100 μM 8-Br-cAMP, 5 μM)	effect on nephrogenesis ([1]; FIG. 7A, E13.5 kidneys, 100 μM 8-Br-cAMP, 5 μM)
Cc1[nH]c(/C=C2\C(=O)Nc3ccc(S(=O)(=O)Cc4c(Cl)cccc4Cl)cc32)c(C)c1C(=O)N1CCC[C@@H]1CN1CCCC1 [PHA665752, (2R)-1-[[5-[(Z)45-[[(2,6-Dichlorophenyl)methyl]sulfony 1]-1,2-dihydro-2-oxo-3H-indo1-3-ylidenelmethyl]-2,4-dimethyl-1H-pyrrol-3-yl]carbonyl]-2-(1-pyrrolidinylmethyl) pyrrolidone]	decreased	no apparent effect								
Cc1[nH]c(/C=C2\C(=O)Nc3ccc(S(=O)(=O)N(C)c4cccc(Cl)c4)cc32)c(C)c1C(=O)N1CCN(C)CC1 [SU11274, (3Z)-N-(3-chlorophenyl)-3-({3,5-dimethyl-4-[(4-methylpiperazin-1-yl)carbonyl]-1H-pyrrol-2-yl}methylene)-N-methyl-2-oxoindoline-5-sulfonamide]			inhibited	reduced mTOR phosphorylation in Pkd1^null/null cells, to a baseline level observed in WT cells	reduced cyst formation in organ culture by Pkd1^null/null mutant kidneys to the basal level observed in WT kidneys; also recorded: decreased	decreased	no apparent effect	did not have a marked effect	decreased	no apparent effect
